{"source": "patent US4194006A", "about": "“Therapeutic application of acetyl-d,l-carnitine and other acyl derivatives of d,l-carnitine” (priority 1977, dated 1980)", "key": {"isolated rabbit hearts [1]": {"system": "isolated rabbit hearts", "test": "cardiokinetic effect on isolated heart (Langendorff): contractile force after anoxia, positive inotropic effect", "conditions": "10 minutes from interruption of anoxic period", "experimental": "(§1) The cardiokinetic effect on isolated heart was also investigated as follows. Rabbit hearts isolated by the Langendorff method were perfused with oxygenized ringer solution at 38.2° C. The isometric contractions, electrocardiogram and coronary flow were recorded using a \"Battaglia-Rangoni\" polygraph. By removing the oxygen from the perfusion fluid, metabolic damage was induced in the cardia muscle, up to an 80% reduction in the cardiac contractile force.\n(§2) Under these conditions of prolonged anoxia the aerobic glycolysis of the myocardium is slowed down, accompanied by the storage of acid catabolites due to both the accumulation of pyruvic acid and its conversion to lactic acid which cannot be utilized because of the depression of pyridine enzymes, such as LDH (lactodehydrogenase). This has repercussions on the anaerobic glycolysis affecting an ever increasing number of enzymes, accompanied by a progressive and increasingly critical exhaustion of the myocardium. Thus a whole series of cardiac muscle fatigue levels occurs which can be observed by the behavior of the examined parameters, namely the contractile force, coronary flow, heart rate and cardiac rhythm. As soon as the contractile force was reduced by 80%, the perfusion fluid was once again oxygenized either without adding other compounds (controls) or with the addition of the compounds under examination.\nTable 3 below gives the percentage values of the contractile force of the heart, showing a positive inotropic effect, calculated after 10 minutes from the interruption of the anoxic period (myocardial restoration)."}, "isolated rabbit hearts [2]": {"system": "isolated rabbit hearts", "test": "coronary vasodilator effect: coronary flow, isolated heart (Langendorff)", "experimental": "as §1, §2"}, "isolated rat atrium": {"system": "isolated rat atrium", "test": "antiarrhythmic effect, isolated rat atrium method of M. Libonati and G. Segre", "conditions": "Rattus norvegicus"}, "female rats": {"system": "female rats", "test": "antifatigue effect: rota-rod", "format": "in vivo, rat", "conditions": "Rattus norvegicus, ip, 0.25 h; for responders at 300 mg/kg: read-out: percentage of animals staying on the rota-rod more than 180 seconds, 300 mg/kg i.p.; for responders at 400 mg/kg: read-out: percentage of animals staying on the rota-rod more than 180 seconds, 400 mg/kg i.p.; for responders at 600 mg/kg: read-out: percentage of animals staying on the rota-rod more than 180 seconds, 600 mg/kg i.p.", "experimental": "The antifatigue effect was also examined with the following results. The antifatigue effect was investigated by administering the compounds of the formula (I) according to the present application to female rats intraperitoneally in saline solution and saline solution alone to the controls by the same route. Every 15 minutes (sessions) after treatment, the animals were placed on a 6 cm diameter rod, rotating at 16 r.p.m. The percentage of the animals capable of staying on the rota-rod for a duration of more than 180 seconds was then recorded."}, "[3]": {"conditions": "read-out: Mean percent variation versus controls: excitability (-%)"}, "[4]": {"conditions": "read-out: Mean percent variation versus controls: frequency max (-%)"}, "[5]": {"conditions": "read-out: Mean percent variation versus controls: refractory period (+%)"}, "[6]": {"conditions": "read-out: Mean percent variation versus controls: rheobase (+%)"}, "[7]": {"conditions": "session 6 (every 15 minutes), * p < 0.05"}}, "note": "Read-outs that look alike come from different tables or passages of the source."}
{"smiles": "CCCCCCCCCCCCCCCC(=O)OC(CC(=O)[O-])C[N+](C)(C)C", "note": "(racemic) [palmitoyl-d,l-carnitine]", "values": [{"measurement": "Contractile force, Mean ± S.E.", "setting": "isolated rabbit hearts [1]; 1·10^-5 g/lt", "value": "38.2 ± 4.75", "unit": "%"}, {"measurement": "Contractile force, Mean ± S.E.", "setting": "isolated rabbit hearts [1]; 1·10^-6 g/lt", "value": "27.8 ± 4.71", "unit": "%"}, {"measurement": "Contractile force, Mean ± S.E.", "setting": "isolated rabbit hearts [1]; 5·10^-6 g/lt", "value": "33.4 ± 3.08", "unit": "%"}, {"measurement": "Coronary flow, Mean ± S.E.", "setting": "isolated rabbit hearts [2]; 1·10^-5 g/lt", "value": "84.68 ± 7.20", "unit": "%"}, {"measurement": "Coronary flow, Mean ± S.E.", "setting": "isolated rabbit hearts [2]; 1·10^-6 g/lt", "value": "78.15 ± 7.21", "unit": "%"}, {"measurement": "Coronary flow, Mean ± S.E.", "setting": "isolated rabbit hearts [2]; 5·10^-6 g/lt", "value": "72.20 ± 12.73", "unit": "%"}, {"measurement": "inhibition at 0.001 µg/mL", "setting": "isolated rat atrium; [3]", "value": 0, "unit": "%"}, {"measurement": "inhibition at 0.01 µg/mL", "setting": "isolated rat atrium; [3]", "value": 3.01, "unit": "%"}, {"measurement": "inhibition at 0.1 µg/mL", "setting": "isolated rat atrium; [3]", "value": 32.8, "unit": "%"}, {"measurement": "inhibition at 0.001 µg/mL", "setting": "isolated rat atrium; [4]", "value": 16.9, "unit": "%"}, {"measurement": "inhibition at 0.01 µg/mL", "setting": "isolated rat atrium; [4]", "value": 8.14, "unit": "%"}, {"measurement": "inhibition at 0.1 µg/mL", "setting": "isolated rat atrium; [4]", "value": 80.5, "unit": "%"}, {"measurement": "activation at 0.001 µg/mL", "setting": "isolated rat atrium; [5]", "value": 0, "unit": "%"}, {"measurement": "activation at 0.01 µg/mL", "setting": "isolated rat atrium; [5]", "value": 13.7, "unit": "%"}, {"measurement": "activation at 0.1 µg/mL", "setting": "isolated rat atrium; [5]", "value": 34.1, "unit": "%"}, {"measurement": "activation at 0.001 µg/mL", "setting": "isolated rat atrium; [6]", "value": 22.2, "unit": "%"}, {"measurement": "activation at 0.01 µg/mL", "setting": "isolated rat atrium; [6]", "value": 7.33, "unit": "%"}, {"measurement": "activation at 0.1 µg/mL", "setting": "isolated rat atrium; [6]", "value": 6.91, "unit": "%"}, {"measurement": "responders at 300 mg/kg", "setting": "female rats; session 1 (every 15 minutes)", "value": 0, "unit": "%"}, {"measurement": "responders at 300 mg/kg", "setting": "female rats; session 2 (every 15 minutes)", "value": 0, "unit": "%"}, {"measurement": "responders at 300 mg/kg", "setting": "female rats; session 3 (every 15 minutes)", "value": 0, "unit": "%"}, {"measurement": "responders at 300 mg/kg", "setting": "female rats; session 4 (every 15 minutes)", "value": 0, "unit": "%"}, {"measurement": "responders at 300 mg/kg", "setting": "female rats; session 5 (every 15 minutes)", "value": 10, "unit": "%"}, {"measurement": "responders at 300 mg/kg", "setting": "female rats; session 6 (every 15 minutes)", "value": 10, "unit": "%"}, {"measurement": "responders at 400 mg/kg", "setting": "female rats; session 1 (every 15 minutes)", "value": 0, "unit": "%"}, {"measurement": "responders at 400 mg/kg", "setting": "female rats; session 2 (every 15 minutes)", "value": 0, "unit": "%"}, {"measurement": "responders at 400 mg/kg", "setting": "female rats; session 3 (every 15 minutes)", "value": 0, "unit": "%"}, {"measurement": "responders at 400 mg/kg", "setting": "female rats; session 4 (every 15 minutes)", "value": 10, "unit": "%"}, {"measurement": "responders at 400 mg/kg", "setting": "female rats; session 5 (every 15 minutes)", "value": 20, "unit": "%"}, {"measurement": "responders at 400 mg/kg", "setting": "female rats; [7]", "value": 20, "unit": "%"}, {"measurement": "responders at 600 mg/kg", "setting": "female rats; session 1 (every 15 minutes)", "value": 0, "unit": "%"}, {"measurement": "responders at 600 mg/kg", "setting": "female rats; session 2 (every 15 minutes)", "value": 0, "unit": "%"}, {"measurement": "responders at 600 mg/kg", "setting": "female rats; session 3 (every 15 minutes)", "value": 0, "unit": "%"}, {"measurement": "responders at 600 mg/kg", "setting": "female rats; session 4 (every 15 minutes)", "value": 20, "unit": "%"}, {"measurement": "responders at 600 mg/kg", "setting": "female rats; session 5 (every 15 minutes)", "value": 20, "unit": "%"}, {"measurement": "responders at 600 mg/kg", "setting": "female rats; [7]", "value": 30, "unit": "%"}]}
